Data from the supplement of paper PMC10307832.

Assays:
Experiment in all cases: relative viability (nuclei count vs DMSO), 5 days (fraction); higher = more cells survive
[1] = compound: C1=CC=C2C(=C1)N=C(S2)C(C#N)C3=NC(=NC=C3)NCCC4=CN=CC=C4 + N=C(N)NC(=N)NCCc1ccccc1 [Phenformin] (partner 250 µM)
Method in brief: (§1)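 Cells from lung cancer lines were seeded into 1536-well plates and, one day later, dosed by pin tool. Treatments were either a single drug or a fixed dose of an anchor drug with five library-drug doses (not always all listed) in √10 steps. After 5 days, nuclei were stained in a one-step fixation (final 0.05% Triton X-100, 1% formaldehyde, 1 ug/ml Hoechst) and counted on 4× images, and relative viability is the treated-to-vehicle nuclei ratio, as the median of duplicate plates.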

[2] = compound: COc1cc(N2CCC(N3CCN(C)CC3)CC2)ccc1Nc1ncc(Cl)c(Nc2ccccc2S(=O)(=O)C(C)C)n1 [NVP-TAE684] + O=C(CCCCCCC(=O)Nc1ccccc1)NO [Vorinostat] (partner 1 µM)
Method in brief: as §1

[3] = compound: COc1cc2/c(=N/c3ccc(Br)cc3F)nc[nH]c2cc1OCC1CCN(C)CC1 [Vandetanib] + CC(C)C[C@H](NC(=O)[C@H](Cc1ccccc1)NC(=O)c1cnccn1)B(O)O [Bortezomib] (partner 0.002 µM)
Method in brief: as §1

[4] = compound: COc1cc2/c(=N/c3ccc(Br)cc3F)nc[nH]c2cc1OCC1CCN(C)CC1 [Vandetanib] + Cc1cc(Nc2cc(N3CCN(C)CC3)nc(Sc3ccc(NC(=O)C4CC4)cc3)n2)n[nH]1 [Tozasertib] (partner 0.1 µM)
Method in brief: as §1

**Q.** Which results are given for UMC-11?
**A.** relative viability ([1]; first compound 0.005 µM): 0.3; relative viability ([1]; first compound 0.01581 µM): 0.315; relative viability ([1]; first compound 0.05 µM): 0.32; relative viability ([1]; first compound 0.1581 µM): 0.325; relative viability ([1]; first compound 0.5 µM): 0.336; relative viability ([2]; first compound 0.2 µM): 0.385; relative viability ([2]; first compound 0.6325 µM): 0.336; relative viability ([2]; first compound 2 µM): 0.186; relative viability ([3]; first compound 0.02 µM): 0.743; relative viability ([3]; first compound 0.06325 µM): 0.708; relative viability ([3]; first compound 0.2 µM): 0.61; relative viability ([3]; first compound 0.6325 µM): 0.725; relative viability ([3]; first compound 2 µM): 0.746; relative viability ([4]; first compound 0.02 µM): 0.204; relative viability ([4]; first compound 0.06325 µM): 0.187; relative viability ([4]; first compound 0.2 µM): 0.175; relative viability ([4]; first compound 0.6325 µM): 0.189; relative viability ([4]; first compound 2 µM): 0.205
